# Paper PMC7561186, “Rational design of balanced dual-targeting antibiotics with limited resistance” (PLoS Biology, 2020)
# Read-outs that look alike come from different tables or passages of the source.
# Test system: S. aureus clinical isolates
# Assay: microbe, parasite or virus in culture
# Assay type: cell-based
# Settings: Staphylococcus aureus, read-out: MIC
smiles,measurement,setting,value
CC[C@H]1OC(=O)[C@H](C)[C@@H](O[C@H]2C[C@@](C)(OC)[C@@H](O)[C@H](C)O2)[C@H](C)[C@@H](O[C@@H]2O[C@H](C)C[C@H](N(C)C)[C@H]2O)[C@](C)(O)C[C@@H](C)CN(C)[C@H](C)[C@@H](O)[C@]1(C)O [Azithromycin],MIC,"ATCC 29213 / MSSA, S. aureus ATCC 29213, MSSA / VSSA, test date 2018-10-25 (three repeat lines)",1 µg/mL
same,MIC,"ATCC 29213 / MSSA, S. aureus ATCC 29213, MSSA / VSSA, test date 2018-11-07",1 µg/mL
same,MIC,"MRSA / NRS 3 / VISA, S. aureus IHMA 1308243, NRS3, MRSA / VISA",> 32 µg/mL
same,MIC,"MRSA / NRS 4 / VISA, S. aureus IHMA 649380, NRS4, MRSA / VISA",> 32 µg/mL
same,MIC,"MRSA / NRS 18 / VISA, S. aureus IHMA 649386, NRS18, MRSA / VISA",> 32 µg/mL
same,MIC,"MRSA / NRS 19 / VISA, S. aureus IHMA 649387, NRS19, MRSA / VISA",> 32 µg/mL
same,MIC,"MRSA / NRS 21 / VISA, S. aureus IHMA 649388, NRS21, MRSA / VISA",0.5 µg/mL
same,MIC,"MRSA / NRS 22 / USA600 / VISA, S. aureus IHMA 649389, NRS22, MRSA / VISA, USA600",> 32 µg/mL
same,MIC,"MRSA / NRS 23 / VISA, S. aureus IHMA 649390, NRS23, MRSA / VISA",> 32 µg/mL
same,MIC,"MRSA / NRS 24 / VISA, S. aureus IHMA 649391, NRS24, MRSA / VISA",> 32 µg/mL
same,MIC,"MRSA / NRS 26, S. aureus IHMA 649392, NRS26, MRSA / VSSA",> 32 µg/mL
same,MIC,"MRSA / NRS 27 / VISA, S. aureus IHMA 1308248, NRS27, MRSA / VISA",> 32 µg/mL
same,MIC,"MRSA / NRS 29 / VISA, S. aureus IHMA 1308250, NRS29, MRSA / VISA",> 32 µg/mL
same,MIC,"MRSA / NRS 37 / VISA, S. aureus IHMA 1308251, NRS37, MRSA / VISA",> 32 µg/mL
same,MIC,"MRSA / NRS 54, S. aureus IHMA 1308253, NRS54, MRSA / VSSA* (*Expected VAN intermediate, confirmed VAN susceptible twice), test date 2018-11-07",> 32 µg/mL
same,MIC,"MRSA / NRS 56 / VISA, S. aureus IHMA 1308254, NRS56, MRSA / VISA",> 32 µg/mL
same,MIC,"MRSA / USA100 / VRSA, S. aureus IHMA 672230, VRS1, MRSA / VRSA, USA100",> 32 µg/mL
same,MIC,"MRSA / USA100 / VRSA, S. aureus IHMA 672231, VRS2, MRSA / VRSA, USA100",> 32 µg/mL
same,MIC,"MRSA / USA100 / VRSA, S. aureus IHMA 672234, VRS4, MRSA / VRSA, USA100",> 32 µg/mL
same,MIC,"MRSA / USA100 / VRSA, S. aureus IHMA 672235, VRS5, MRSA / VRSA, USA100",> 32 µg/mL
same,MIC,"MRSA / USA100 / VRSA, S. aureus IHMA 672237, VRS7, MRSA / VRSA, USA100",> 32 µg/mL
same,MIC,"MRSA / USA100 / VRSA, S. aureus IHMA 672238, VRS8, MRSA / VRSA, USA100",> 32 µg/mL
same,MIC,"MRSA / USA100 / VRSA, S. aureus IHMA 672239, VRS9, MRSA / VRSA, USA100",> 32 µg/mL
same,MIC,"MRSA / USA100 / VRSA, S. aureus IHMA 1308256, VRS10, MRSA / VRSA, USA100",> 32 µg/mL
same,MIC,"MRSA / USA100 / VRSA, S. aureus IHMA 1308258, VRS11b, MRSA / VRSA, USA100",> 32 µg/mL
same,MIC,"MRSA / USA800 / VRSA, S. aureus IHMA 672233, VRS3b, MRSA / VRSA, USA800",> 32 µg/mL
same,MIC,"MRSA, S. aureus IHMA 1569509, MRSA / VSSA",> 32 µg/mL
same,MIC,"MRSA, S. aureus IHMA 1575268, MRSA / VSSA",> 32 µg/mL
same,MIC,"MRSA, S. aureus IHMA 1575629, MRSA / VSSA",1 µg/mL
same,MIC,"MRSA, S. aureus IHMA 1577820, MRSA / VSSA",> 32 µg/mL
same,MIC,"MRSA, S. aureus IHMA 1580300, MRSA / VSSA",0.5 µg/mL
same,MIC,"MRSA, S. aureus IHMA 1580940, MRSA / VSSA",> 32 µg/mL
same,MIC,"MRSA, S. aureus IHMA 1582100, MRSA / VSSA",> 32 µg/mL
same,MIC,"MRSA, S. aureus IHMA 1583795, MRSA / VSSA",> 32 µg/mL
same,MIC,"MRSA, S. aureus IHMA 1584223, MRSA / VSSA",32 µg/mL
same,MIC,"MRSA, S. aureus IHMA 1585316, MRSA / VSSA",> 32 µg/mL
same,MIC,"MRSA, S. aureus IHMA 1586780, MRSA / VSSA",1 µg/mL
same,MIC,"MRSA, S. aureus IHMA 1587322, MRSA / VSSA",> 32 µg/mL
same,MIC,"MRSA, S. aureus IHMA 1588127, MRSA / VSSA",0.5 µg/mL
same,MIC,"MRSA, S. aureus IHMA 1591462, MRSA / VSSA",1 µg/mL
same,MIC,"MRSA, S. aureus IHMA 1592755, MRSA / VSSA",0.5 µg/mL
same,MIC,"MRSA, S. aureus IHMA 1592776, MRSA / VSSA",> 32 µg/mL
same,MIC,"MRSA, S. aureus IHMA 1597106, MRSA / VSSA",> 32 µg/mL
same,MIC,"MRSA, S. aureus IHMA 1602095, MRSA / VSSA",> 32 µg/mL
same,MIC,"MRSA, S. aureus IHMA 1611170, MRSA / VSSA",> 32 µg/mL
same,MIC,"MRSA, S. aureus IHMA 1611612, MRSA / VSSA",> 32 µg/mL
same,MIC,"MRSA, S. aureus IHMA 1612228, MRSA / VSSA",16 µg/mL
same,MIC,"MRSA, S. aureus IHMA 1620441, MRSA / VSSA",> 32 µg/mL
same,MIC,"MRSA, S. aureus IHMA 1621638, MRSA / VSSA",1 µg/mL
same,MIC,"MRSA, S. aureus IHMA 1622252, MRSA / VSSA",1 µg/mL
same,MIC,"MRSA, S. aureus IHMA 1622527, MRSA / VSSA",1 µg/mL
same,MIC,"MRSA, S. aureus IHMA 1666371, MRSA / VSSA",0.25 µg/mL
same,MIC,"MRSA, S. aureus IHMA 1695391, MRSA / VSSA",> 32 µg/mL
same,MIC,"MRSA, S. aureus IHMA 1703428, MRSA / VSSA",0.5 µg/mL
same,MIC,"MRSA, S. aureus IHMA 1720350, MRSA / VSSA",32 µg/mL
same,MIC,"MRSA, S. aureus IHMA 1732989, MRSA / VSSA",> 32 µg/mL
same,MIC,"MRSA, S. aureus IHMA 1742231, MRSA / VSSA",> 32 µg/mL
same,MIC,"MRSA, S. aureus IHMA 1766357, MRSA / VSSA",1 µg/mL
same,MIC,"MSSA / NRS 12 / VISA, S. aureus IHMA 1308244, NRS12, MSSA / VISA",0.5 µg/mL
same,MIC,"MSSA / NRS 13 / VISA, S. aureus IHMA 1308245, NRS13, MSSA / VISA",1 µg/mL
same,MIC,"MSSA / NRS 14 / VISA, S. aureus IHMA 1308246, NRS14, MSSA / VISA",0.5 µg/mL
same,MIC,"MSSA / NRS 17 / VISA, S. aureus IHMA 1308247, NRS17, MSSA / VISA",8 µg/mL
same,MIC,"MSSA / NRS 28 / VISA, S. aureus IHMA 1308249, NRS28, MSSA / VISA",> 32 µg/mL
same,MIC,"MSSA / NRS 52, S. aureus IHMA 1308252, NRS52, MSSA / VSSA* (*Expected VAN intermediate, confirmed VAN susceptible twice), test date 2018-11-07",0.25 µg/mL
same,MIC,"MSSA / USA100 / VRSA, S. aureus IHMA 672236, VRS6, MSSA / VRSA, USA100",> 32 µg/mL
same,MIC,"MSSA, S. aureus IHMA 1563826, MSSA / VSSA",1 µg/mL
same,MIC,"MSSA, S. aureus IHMA 1565492, MSSA / VSSA",1 µg/mL
same,MIC,"MSSA, S. aureus IHMA 1569499, MSSA / VSSA",0.5 µg/mL
same,MIC,"MSSA, S. aureus IHMA 1569754, MSSA / VSSA",> 32 µg/mL
same,MIC,"MSSA, S. aureus IHMA 1574202, MSSA / VSSA",0.5 µg/mL
same,MIC,"MSSA, S. aureus IHMA 1575652, MSSA / VSSA",1 µg/mL
same,MIC,"MSSA, S. aureus IHMA 1575779, MSSA / VSSA",> 32 µg/mL
same,MIC,"MSSA, S. aureus IHMA 1576329, MSSA / VSSA",1 µg/mL
same,MIC,"MSSA, S. aureus IHMA 1577800, MSSA / VSSA",1 µg/mL
same,MIC,"MSSA, S. aureus IHMA 1578560, MSSA / VSSA",1 µg/mL
same,MIC,"MSSA, S. aureus IHMA 1580233, MSSA / VSSA",> 32 µg/mL
same,MIC,"MSSA, S. aureus IHMA 1580925, MSSA / VSSA",1 µg/mL
same,MIC,"MSSA, S. aureus IHMA 1580955, MSSA / VSSA",1 µg/mL
same,MIC,"MSSA, S. aureus IHMA 1582586, MSSA / VSSA",1 µg/mL
same,MIC,"MSSA, S. aureus IHMA 1582691, MSSA / VSSA",> 32 µg/mL
same,MIC,"MSSA, S. aureus IHMA 1584230, MSSA / VSSA",1 µg/mL
same,MIC,"MSSA, S. aureus IHMA 1587279, MSSA / VSSA",1 µg/mL
same,MIC,"MSSA, S. aureus IHMA 1591459, MSSA / VSSA",0.5 µg/mL
same,MIC,"MSSA, S. aureus IHMA 1592749, MSSA / VSSA",1 µg/mL
same,MIC,"MSSA, S. aureus IHMA 1592751, MSSA / VSSA",1 µg/mL
same,MIC,"MSSA, S. aureus IHMA 1594297, MSSA / VSSA",32 µg/mL
same,MIC,"MSSA, S. aureus IHMA 1597120, MSSA / VSSA",> 32 µg/mL
same,MIC,"MSSA, S. aureus IHMA 1597125, MSSA / VSSA",> 32 µg/mL
same,MIC,"MSSA, S. aureus IHMA 1599157, MSSA / VSSA",1 µg/mL
same,MIC,"MSSA, S. aureus IHMA 1599506, MSSA / VSSA",1 µg/mL
same,MIC,"MSSA, S. aureus IHMA 1602078, MSSA / VSSA",> 32 µg/mL
same,MIC,"MSSA, S. aureus IHMA 1604586, MSSA / VSSA",0.25 µg/mL
same,MIC,"MSSA, S. aureus IHMA 1604609, MSSA / VSSA",1 µg/mL
same,MIC,"MSSA, S. aureus IHMA 1609919, MSSA / VSSA",> 32 µg/mL
same,MIC,"MSSA, S. aureus IHMA 1622864, MSSA / VSSA",1 µg/mL
same,MIC,"MSSA, S. aureus IHMA 1626392, MSSA / VSSA",0.5 µg/mL
same,MIC,"MSSA, S. aureus IHMA 1713793, MSSA / VSSA",1 µg/mL
